Among the test systems are EKVX NSCLC; HOP-92 NSCLC; UACC-62 melanoma; NCI-H460 lung; CAKI-1 renal; MDA-MB-435; HCT-116 colon; MDA-MB-231 breast.
What all share (experiment): DTP human tumour cell line panel, 48 h

This is an account of results in PubChem BioAssay (NCI).

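A five-concentration, 48-hour dose response in 96-well plates underlies each endpoint, interpolated linearly between surrounding concentrations. The concentration for 50% growth inhibition is given as GI50. Definition used: TGI = concentration required for complete inhibition of growth.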

By TGI is commonly meant the concentration at which net growth stops. Low values mean more potent growth arrest, high ones less potent growth arrest. As for `CC(C)CCC[C@@H](C)[C@H]1CC[C@H]2[C@@H]3CC[C@H]4C[C@@H](CCC=C(c5cc(Cl)c(O)c(C(=O)O)c5)c5cc(Cl)c(O)c(C(=O)O)c5)CC[C@]4(C)[C@H]3CC[C@]12C`, the TGI with EKVX NSCLC, in the test with HOP-92 NSCLC, in the test on UACC-62 melanoma, in the test on NCI-H460 lung, with CAKI-1 renal and in the test with MDA-MB-435 was over 100 µM each time. Also, the TGI in the test with HCT-116 colon and with MDA-MB-231 breast was over 100 µM in each case.

The GI50 is the concentration that inhibits growth by half. Consider `NS(=O)(=O)c1ccc(-n2nc3c(c2-c2ccc(Cl)cc2)Cc2ccccc2-3)cc1`, for which the GI50 in the test with EKVX NSCLC was 17.1 µM; in the test on HOP-92 NSCLC, 11.6 µM; in the test with UACC-62 melanoma it was 13.7 µM; in the test on NCI-H460 lung, 32.1 µM; in the test on CAKI-1 renal it was 17.5 µM; with MDA-MB-435, 17.8 µM. For the same compound, the GI50 in the test on HCT-116 colon was 4.06 µM; in the test with MDA-MB-231 breast it was 14.8 µM. In addition, the TGI in the test with EKVX NSCLC is 33.5 µM; with HOP-92 NSCLC it was 24.5 µM; with UACC-62 melanoma, 26.9 µM; in the test on NCI-H460 lung, over 100 µM; with CAKI-1 renal, 31.6 µM; with MDA-MB-435, 32.6 µM. For the same compound, the TGI was 21.3 µM in the test on HCT-116 colon and 30.1 µM in the test with MDA-MB-231 breast.

Take `COc1ccc(-c2ccncc2)cc1C(N)=O`: the GI50 in the test with EKVX NSCLC, with HOP-92 NSCLC, in the test on UACC-62 melanoma, in the test with NCI-H460 lung, in the test on CAKI-1 renal and in the test with MDA-MB-435 was over 25 µM each time. Also, the GI50 in the test with HCT-116 colon and with MDA-MB-231 breast was over 25 µM throughout. Further, the TGI in the test with EKVX NSCLC, with HOP-92 NSCLC, in the test with UACC-62 melanoma, with NCI-H460 lung, with CAKI-1 renal and in the test with MDA-MB-435 was over 25 µM each time. In addition, the TGI in the test with HCT-116 colon and in the test on MDA-MB-231 breast was over 25 µM in each case.

Turning to `O=c1c2cc(F)ccc2sc2c(N3CCNCC3)nc3ccc(F)cc3c12`, the GI50 in the test with EKVX NSCLC was 1.62 µM; with HOP-92 NSCLC, 1.18 µM; in the test on UACC-62 melanoma it was 1.74 µM; in the test with NCI-H460 lung it was 1.59 µM; in the test with CAKI-1 renal, 1.57 µM; in the test with MDA-MB-435, 1.74 µM. Also, the GI50 in the test on HCT-116 colon was 1.63 µM; in the test with MDA-MB-231 breast, 1.42 µM. Besides, the TGI in the test on EKVX NSCLC amounted to 3.04 µM; with HOP-92 NSCLC, 2.52 µM; in the test on UACC-62 melanoma, 3.19 µM; in the test with NCI-H460 lung, 3.12 µM; in the test with CAKI-1 renal it was 2.92 µM; in the test with MDA-MB-435, 3.2 µM. For the same compound, the TGI in the test with HCT-116 colon was determined as 3.21 µM; in the test on MDA-MB-231 breast, 2.79 µM.

As to `Cc1nc(-c2ccccc2)n2nc(NCCCN3CCOCC3)ncc12`, the GI50 in the test on EKVX NSCLC is over 25 µM; in the test with HOP-92 NSCLC, 10.6 µM; in the test on UACC-62 melanoma it was over 25 µM; in the test with NCI-H460 lung, 21.2 µM; with CAKI-1 renal it was 6.86 µM; in the test with MDA-MB-435 it was over 25 µM. Moreover, the values for the GI50 with HCT-116 colon and in the test with MDA-MB-231 breast were 19.4 µM and over 25 µM, respectively. Moreover, the TGI in the test on EKVX NSCLC, in the test with HOP-92 NSCLC, in the test on UACC-62 melanoma, in the test on NCI-H460 lung, in the test with CAKI-1 renal and in the test with MDA-MB-435 was over 25 µM throughout. Besides, the TGI in the test with HCT-116 colon and in the test with MDA-MB-231 breast was over 25 µM in each case.

In the case of `CN(CCCCCl)P(=O)(OCCS(=O)(=O)CC(NC(=O)CCC(N)C(=O)O)C(=O)NC(C(=O)O)c1ccccc1)OCC1OC(n2ccc(N)nc2=O)C(F)(F)C1O` (stereo unspecified), the GI50 in the test on EKVX NSCLC was 11.4 µM; with HOP-92 NSCLC, 0.379 µM; in the test with UACC-62 melanoma, 0.377 µM; in the test with NCI-H460 lung, 0.104 µM; in the test with CAKI-1 renal, 0.0438 µM; with MDA-MB-435 it was 0.178 µM. Besides, the GI50 in the test on HCT-116 colon is 0.0378 µM; with MDA-MB-231 breast it was 14.2 µM. The TGI in the test on EKVX NSCLC is over 100 µM; with HOP-92 NSCLC it was 8.63 µM; with UACC-62 melanoma, over 65.4 µM; in the test with NCI-H460 lung, over 100 µM; in the test on CAKI-1 renal, 5.8 µM; with MDA-MB-435, over 100 µM. The TGI in the test with HCT-116 colon and in the test with MDA-MB-231 breast was over 100 µM in each case.

On to `Cc1ncc(C(=O)Nc2ccc(CN3CCN(C)CC3)c(C(F)(F)F)c2)cc1C#Cc1cnc2cccnn12`, for which the GI50 was 0.683 µM with EKVX NSCLC; 0.253 µM with HOP-92 NSCLC; 0.28 µM with UACC-62 melanoma; 0.501 µM with NCI-H460 lung; 0.365 µM with CAKI-1 renal; 0.243 µM in the test with MDA-MB-435. Moreover, the GI50 was 0.178 µM with HCT-116 colon and 0.205 µM with MDA-MB-231 breast. The TGI stood at 2.9 µM in the test with EKVX NSCLC; 2.87 µM with HOP-92 NSCLC; 1.32 µM in the test with UACC-62 melanoma; 1.53 µM in the test on NCI-H460 lung; 2.82 µM in the test with CAKI-1 renal; 1.48 µM in the test with MDA-MB-435. In addition, the figures for the TGI with HCT-116 colon and with MDA-MB-231 breast were 0.743 µM and 4.15 µM, respectively.

`COc1cc(OC)c(C(=O)/C=C/c2cc3c(cc2OCc2ccccc2)OC(C)(C)CC3)cc1CC=C(C)C`: the GI50 is 6.73 µM with EKVX NSCLC; 3.52 µM in the test on HOP-92 NSCLC; 3.8 µM in the test on UACC-62 melanoma; 4.38 µM in the test on NCI-H460 lung; 6.74 µM in the test on CAKI-1 renal; 4.54 µM with MDA-MB-435. For the same compound, the GI50 was 2.98 µM in the test on HCT-116 colon and 10.1 µM in the test with MDA-MB-231 breast. The TGI was 22.6 µM with EKVX NSCLC; 19.9 µM with HOP-92 NSCLC; 10.5 µM in the test with UACC-62 melanoma; 11.8 µM in the test with NCI-H460 lung; 16.9 µM in the test on CAKI-1 renal; 18.2 µM in the test with MDA-MB-435. Moreover, the TGI is 6.41 µM with HCT-116 colon and over 25 µM in the test on MDA-MB-231 breast.

`CCCCCCCCCCCCCCCCCC1=NC(C)(C)CN1CC(C)O` (stereo unspecified): the GI50 is 13.7 µM in the test with EKVX NSCLC; 3.94 µM in the test on HOP-92 NSCLC; 3.44 µM with UACC-62 melanoma; 2.78 µM with NCI-H460 lung; 14.4 µM with CAKI-1 renal; 2.08 µM in the test on MDA-MB-435. Moreover, the GI50 with HCT-116 colon is 2.43 µM; in the test with MDA-MB-231 breast, 2.02 µM. The TGI in the test on EKVX NSCLC was 30.1 µM; in the test with HOP-92 NSCLC, 17.8 µM; in the test with UACC-62 melanoma, 12.5 µM; in the test with NCI-H460 lung, 7.06 µM; in the test with CAKI-1 renal, 29.4 µM; with MDA-MB-435 it was 4.5 µM. Moreover, the TGI came to 5.86 µM in the test on HCT-116 colon and 4.37 µM in the test with MDA-MB-231 breast.
